In US5872126A, “Methods and compositions for treating preterm labor” (priority 1997, dated 1999):
Where “and” joins values, the source holds several entries; their conditions need not be identical. Equal values may be shown once.

Assays:
[1] = system: parturition in mice homozygous for genetic null mutations of type 1 5α-reductase; conditions: mice homozygous for type 1 5α-reductase null mutations; cited from earlier work
parturition in the rat = assay: Parturition with test compound and progesterone antagonist RU-486 (Example 3); format: in vivo, Sprague-Dawley rat; conditions: RU-486 10 mg/kg on GD 21 (Group 2)
Procedure: In order to determine if the effects in the experiments conducted in Examples 1 and 2 were due to decreased progesterone catabolism associated with inhibition of 5α-reductase by the 5α-reductase type 1 inhibitor 3-oxo-4-aza-4,7β-dimethyl-16β-(4-chlorophenoxy)-5α-androstane ("test compound"), the following study was performed with the 5α-reductase inhibitor 3-oxo-4-aza-4,7β-dimethyl-16β-(4-chlorophenoxy)-5α-androstane and the progesterone antagonist RU-486.
Fifty-six pregnant female Sprague-Dawley rats (Charles River Laboratories, Raleigh, N.C.), approximately 10.5 weeks old weighing from 212 to 319 grams were employed in the study. They were fed and housed as described in EXAMPLE 1. The females were assigned to the following groups based on a weight independent random allocation scheme:
Control (Control article)
test compound @ 20 mg/kg/day
A dose of 10 mg/kg off RU-486 was selected based on the studies of Abdellilah et al., Progesterone and Mifepristone modify principally the response of circular myometrium to oxytocin in preparturient rats: comparison with response to acetylcholine and to calcium J. Pharmacol. and Exp. Therp.
The drugs were administered by oral gavage. The control article and vehicle consisted of 0.5% methylcellulose in deionized water with 0.02% sodium lauryl sulfate (SLS) and were prepared on a weekly basis and refrigerated when not in use. The test compound formulation (4 mg/mL, in vehicle) was prepared on a weekly basis and was refrigerated when not in use. The RU-486 formulation (2 mg base compound/mL, in 0.5% methylcellulose in deionized water) was prepared on a daily basis.

[2] = system: parturition in pregnant rats; conditions: oral dose 10 mg/kg on GD 21; rats treated with 200 mg/kg progesterone subcutaneously; cited from earlier work
[3] = cited from earlier work; for side effects: human, in vivo
[4] = target: T1, 5α-reductase in rat placenta (Rattus norvegicus, UniProt P24008); assay: 5α-reductase assay, rat placenta microsomes; format: biochemical; conditions: read-out: IC50 finasteride
T1 construct: microsomes prepared from rat placenta; tissue Bioproducts for Science; host or cells: rat placenta (microsomes, 100,000×g pellet of homogenate)
T1 sequence (P24008 1-259): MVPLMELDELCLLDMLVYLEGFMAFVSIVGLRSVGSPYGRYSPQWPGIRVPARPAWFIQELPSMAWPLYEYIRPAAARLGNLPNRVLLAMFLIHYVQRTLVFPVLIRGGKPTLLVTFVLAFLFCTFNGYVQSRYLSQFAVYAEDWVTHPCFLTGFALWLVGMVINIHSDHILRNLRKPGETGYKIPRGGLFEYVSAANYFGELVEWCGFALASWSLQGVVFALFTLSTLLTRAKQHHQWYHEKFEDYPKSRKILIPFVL
Procedure: (§1) The 5α-reductase content of microsomes prepared from rat placenta was determined.
(§2) Rat placenta was obtained from Bioproducts for Science. The tissue was homogenized in 10 volumes of buffer containing 0.25 sucrose, 40 mM potassium phosphate pH 6.5, 5 mM magnesium sulfate, 25 mM potassium chloride, 1 mM phenylmethylsulfonyl fluoride, and 1 mM dithiothreitol using a Potter Elverhjem homogenizer. The homogenate was centrifuged at 100,000×g for 60 minutes at 4° C. The pellet was resuspended in 1.5 volumes of buffer. Glycerol was added to the resuspended pellet to a final concentration of 20%. COS cell expressed rat 5α-reductase was used as the source of type 1 and type 2 in these studies for comparison.
(§3) All samples in the enzyme assay were tested in a reaction mixture containing 33 mM succinic acid, 44 mM imidazole, 33 mM diethanolamine (SID), pH 5.5 and pH 7.5, 0.5 μM [7-^3 H]-testosterone (specific activity approximately 20-30 Ci/mmol), 1.5 μM unlabeled testosterone, 1 mM DTT and […] NADPH in a final volume of […]. The assay was initiated by the addition of enzyme and incubated at 37° C. for 15 min.

rat type 1 5α-reductase = target: T2, rat type 1 5α-reductase (Rattus norvegicus, UniProt P24008); assay: 5α-reductase assay, COS cell expressed rat type 1; format: biochemical; conditions: recombinant rat type 1; read-out: IC50 finasteride
T2 construct: made in house; host or cells: COS cells
T2 sequence (P24008 1-259): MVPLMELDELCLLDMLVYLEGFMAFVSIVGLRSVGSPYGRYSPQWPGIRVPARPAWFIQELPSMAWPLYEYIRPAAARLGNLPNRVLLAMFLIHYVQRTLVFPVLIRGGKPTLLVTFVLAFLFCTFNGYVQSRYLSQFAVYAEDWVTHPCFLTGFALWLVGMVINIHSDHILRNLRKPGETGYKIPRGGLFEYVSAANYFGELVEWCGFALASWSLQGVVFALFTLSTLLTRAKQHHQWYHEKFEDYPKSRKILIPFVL
Procedure: as §2, §3

rat type 2 5α-reductase = target: T3, rat type 2 5α-reductase (Rattus norvegicus, UniProt P31214); assay: 5α-reductase assay, COS cell expressed rat type 2; format: biochemical; conditions: read-out: IC50 finasteride
T3 construct: made in house; host or cells: COS cells
T3 sequence (P31214 1-254): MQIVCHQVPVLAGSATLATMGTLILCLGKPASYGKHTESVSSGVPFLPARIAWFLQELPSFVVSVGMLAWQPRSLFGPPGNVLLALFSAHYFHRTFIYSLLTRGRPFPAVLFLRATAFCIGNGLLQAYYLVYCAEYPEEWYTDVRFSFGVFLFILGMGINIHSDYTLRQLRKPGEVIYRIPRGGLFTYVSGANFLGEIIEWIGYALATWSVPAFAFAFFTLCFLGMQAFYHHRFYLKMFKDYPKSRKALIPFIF
Procedure: as §2, §3

human type 2 enzyme = conditions: cited from earlier work
[5] = system: pregnancy and myometrial contractile activity in the rat; conditions: exogenous progesterone; cited from earlier work
[6] = substrate: C[C@]12CC[C@H]3[C@@H](CCC4=CC(=O)CC[C@@]43C)[C@@H]1CC[C@@H]2O; assay: 5α-reductase assay, rat placenta microsomes; format: biochemical; conditions: other: rat placenta microsomes; 37.0 °C
Procedure: as §1, §2, §3

[7] = substrate: C[C@]12CC[C@H]3[C@@H](CCC4=CC(=O)CC[C@@]43C)[C@@H]1CC[C@@H]2O; assay: 5α-reductase assay, COS cell expressed rat type 1; format: biochemical; conditions: other: recombinant rat type 1; 37.0 °C
Procedure: as §2, §3

[8] = substrate: C[C@]12CC[C@H]3[C@@H](CCC4=CC(=O)CC[C@@]43C)[C@@H]1CC[C@@H]2O; assay: 5α-reductase assay, COS cell expressed rat type 2; format: biochemical; conditions: other: rat type 2; 37.0 °C
Procedure: as §2, §3

In the case of `C[C@]12CC[C@@H](O)C[C@@H]1CC[C@@H]1[C@@H]2CC[C@]2(C)[C@@H](O)CC[C@@H]12` [Example 3α-Adiol, 5α-androstan-3α,17β-diol], the “mice in which parturition was induced” value [1] is listed as 93%.

For `CC#C[C@]1(O)CC[C@H]2[C@@H]3CCC4=CC(=O)CCC4=C3[C@@H](c3ccc(N(C)C)cc3)C[C@@]21C` [RU-486, reference compound], the “Mean Length of Gestation ± SD” value (parturition in the rat; only females completing delivery, 10 mg/kg) was 22.3 days and 22.3 ± 0.4 days, the “number of females completing parturition” value (parturition in the rat; delivery day GD 22.0) was 7 and the “number of females completing parturition” value (parturition in the rat; delivery day GD 22.5) was 5. For the same molecule, the “number of females completing parturition” value (parturition in the rat; delivery day GD 23.0) was 2, the “induction of parturition” value [2] was “able to induce parturition” and the “mice in which parturition was induced” value [1] was 100%.

For `CCO` [ethanol], the “effectiveness in preventing premature labor” value ([3]; compared with ritodrine) is given as “as effective as ritodrine in preventing premature labor” and the “reduction in the incidence of fetal respiratory distress” value ([3]; compared with ritodrine) is given as “does not produce a corresponding reduction in the incidence of fetal respiratory distress”.

`CC(C)(C)NC(=O)[C@H]1CC[C@H]2[C@@H]3CC[C@H]4NC(=O)C=C[C@]4(C)[C@H]3CC[C@]12C` [finasteride, 17β-(N-tert-butylcarbamoyl)-3-oxo-4-aza-5α-androst-1-en-3-one] gave an IC50 [4] of 11 nM, an IC50 (rat type 1 5α-reductase) of 13 nM and an IC50 (rat type 2 5α-reductase) of 1 nM. For the same molecule, the “inhibition of the human type 2 enzyme” value (human type 2 enzyme) was “potent inhibitor”.

For `O=S(=O)([O-])[O-].[Mg+2]` [magnesium sulfate], the “adverse effects at plasma concentrations above the therapeutic range” value ([3]; above 4 to 8 mg/dL) is given as “inhibition of cardiac conduction and neuromuscular transmission, respiratory depression and cardiac arrest”.

In the case of `CC(=O)[C@H]1CC[C@H]2[C@@H]3CCC4=CC(=O)CC[C@]4(C)[C@H]3CC[C@]12C` [progesterone], the “effect on pregnancy and myometrial contractile activity” value [5] is listed as “prolong pregnancy and impair myometrial contractile activity”.

For `CC(NCCc1ccc(O)cc1)C(O)c1ccc(O)cc1` (stereo not drawn) [ritodrine], the “side effects” value [3] is listed as “tachycardia, increased renin secretion, hyperglycemia (and reactive hypoglycemia in the infant)”.

For `CC(C)(C)NCC(O)c1ccc(O)c(CO)c1` (stereo not drawn) [salbutamol], the “side effects” value [3] is listed as “side effects similar to those of ritodrine”.

In the case of `CC(C)(C)NCC(O)c1cc(O)cc(O)c1` (stereo not drawn) [terbutaline], the “side effects” value [3] is given as “side effects similar to those of ritodrine”.

B1: 5α-reductase in rat placenta (Rattus norvegicus) (protein)
chain: MVPLMELDELCLLDMLVYLEGFMAFVSIVGLRSVGSPYGRYSPQWPGIRVPARPAWFIQELPSMAWPLYEYIRPAAARLGNLPNRVLLAMFLIHYVQRTLVFPVLIRGGKPTLLVTFVLAFLFCTFNGYVQSRYLSQFAVYAEDWVTHPCFLTGFALWLVGMVINIHSDHILRNLRKPGETGYKIPRGGLFEYVSAANYFGELVEWCGFALASWSLQGVVFALFTLSTLLTRAKQHHQWYHEKFEDYPKSRKILIPFVL
notes: microsomes prepared from rat placenta; tissue Bioproducts for Science; host or cells: rat placenta (microsomes, 100,000×g pellet of homogenate)
Work on B1 yielded a Km [6] of 5.2 µM.

B2: rat type 1 5α-reductase (Rattus norvegicus) (protein)
chain: MVPLMELDELCLLDMLVYLEGFMAFVSIVGLRSVGSPYGRYSPQWPGIRVPARPAWFIQELPSMAWPLYEYIRPAAARLGNLPNRVLLAMFLIHYVQRTLVFPVLIRGGKPTLLVTFVLAFLFCTFNGYVQSRYLSQFAVYAEDWVTHPCFLTGFALWLVGMVINIHSDHILRNLRKPGETGYKIPRGGLFEYVSAANYFGELVEWCGFALASWSLQGVVFALFTLSTLLTRAKQHHQWYHEKFEDYPKSRKILIPFVL
notes: made in house; host or cells: COS cells
B2 gave a Km [7] of 1.7 µM.

B3: rat type 2 5α-reductase (Rattus norvegicus) (protein)
chain: MQIVCHQVPVLAGSATLATMGTLILCLGKPASYGKHTESVSSGVPFLPARIAWFLQELPSFVVSVGMLAWQPRSLFGPPGNVLLALFSAHYFHRTFIYSLLTRGRPFPAVLFLRATAFCIGNGLLQAYYLVYCAEYPEEWYTDVRFSFGVFLFILGMGINIHSDYTLRQLRKPGEVIYRIPRGGLFTYVSGANFLGEIIEWIGYALATWSVPAFAFAFFTLCFLGMQAFYHHRFYLKMFKDYPKSRKALIPFIF
notes: as for B2
In the case of B3, the Km [8] is reported as 0.15 µM.
